Consider two compounds from US20150087723A1, “MICROBIAL COMPOSITION” (Rohm and Haas Company, priority 2011, published 2015).

The subject of assay [1] is Escherichia coli (E. coli—ATCC #10536). The assay can be described thus: Automated assessment of efficacy in model surfactant base (2.85% sodium cocoyl glycinate + 1.85% sodium lauroamphoacetate, pH 10), 15 seconds exposure, OD450/OD590 readout. It is filed as cell-based. Particulars: for MBC: Escherichia coli, ATCC10536, 15 s, in 2.85% sodium cocoyl glycinate + 1.85% sodium lauroamphoacetate solution at pH 10, E. coli, read-out: MBC (% w/v); for No. of replicates showing growth (out of 4) / Δ OD 450 nm = OD450 (time = 16 hours) - OD450 (time zero), Mean / Δ OD 590 nm OD590 (time = 16 hours) - OD590 (time zero), Mean: model surfactant solution.

The subject of assay [2] is Staphylococcus aureus (10788 strain). The assay can be described thus: Antimicrobial efficacy in water, 15 seconds contact, mean bacterial survival NMBS by colony count. Format: cell-based. As to conditions: for NMBS: alone, S. Aureus, 15 seconds contact; for MBC (minimum biocidal concentration): single component, against S. Aureus, in water. As to the method:
Selected materials were also tested against a representative Gram positive Staphylococcus aureus.
This suspension was separated into equal volumes and centrifuged at 4000 rpm for 15 minutes. Following centrifugation the pellet was re-suspended in saline to give a final concentration of 0.35 OD620 equivalent to about 10^8 cells per millilitre for this particular organism. Here, OD620 indicates the absorbance of a sample in a cuvette of 1.0 cm path length at a wavelength of 620 nm. This bacterial stock was used for assaying against antimicrobial actives (in triplicate).
The following assay describes the testing of 8 materials using 6 dilutions across half of a 96-well micro litre plate (MTP). Using this approach it is possible to assay 16 actives (without replicates) with, one full dilution plate, replicating this set up in two halves of the plate columns, 1-6 and 7-12.
IM solutions of the test actives were prepared in dimethylsulphoxide (DMSO).
This MTP was labeled as the “Screening plate”.
In another MTP, labeled as the “Dilution plate”, 270 μl of D/E neutralising solution from DIFCO Composition was added to column 1. The composition of the neutralising solution was as follows: pancreatic digest of casein, 5.0 g/L; Yeast Extract, 2.5 g/L; Dextrose, 10 g/L, sodium thioglycollate, 1.0 g/L, sodium thiosulphate, 6.0 g/L; sodium bisulphite, 2.5 g/L; Polysorbate 80, 5.0 g/L; lecithin 7.0 g/L; bromocresol purple, 0.02 g/L with a pH is the range 7.6±0.2.
270 μl of tryptone diluent solution was added to all the remaining wells of the Dilution MTP (columns 2-6).
Bacterial stock (30 μl) was then added to the prepared 270 μl of the solution of actives in the Screening Plate and mixed, using a multichannel pipette with 8 tips to aspirate and dispense the same volume of bacterial stock in parallel to 8 wells in rows A-H. After a contact time of 15 seconds, the mixtures were quenched by transferring 30 μl volumes of the mixtures into the 270 μl D/E neutralising solution in the prepared dilution plate, using aspiration to mix. After exactly 5 minutes in the D/E neutralising solution, 30 μl volumes were transferred from column 1 to column 2 of the Dilution MTP and mixed, before transferring further 30 μl volumes from column 2 into column 3. This process was repeated serially diluting the bacteria across the plate to column 6.
30 μl volumes from each well in the Dilution MTP were transferred onto pre-labeled segment of Tryptone Soya Agar (TSA) plates starting from the lowest bacterial concentration (highest dilution, column 6) to the highest bacterial concentration (column 1). The TSA plates were allowed to stand for ca. 2 hours so that the 30 μl inocula spots could dry and the plates were then inverted and incubated overnight at 37° C. before enumerating the bacterial colonies at the labeled dilutions to determine the effects of the actives on bacterial growth.
Mean bacterial survival numbers NMBS (expressed in Log CFU/ml) are obtained by first determining the segment of the TSA plate where the number of bacterial colonies is countable. From the colony number in this segment, NMBS is calculated by the formula: […]
Here, Ncol is the colony count, and DF is the dilution factor taken from the MTP-well corresponding to the TSA plate segment (i.e. DF may range from 1 for the quench, to 6 for the highest dilution). The factor 100/3 is a conversion factor from the volume of the inocula spot to one millilitre.
Every assay test was performed in triplicate.
Thus, a value of NMBS of about 7 corresponds to a count of about 3 colonies from the fifth dilution well, i.e. with DF=5. Such a count of about 7 is generally observed when bacteria are exposed to non-biocidal materials. In case no surviving colonies are observed in any segment of the TSA plate, this is interpreted as complete kill and a value of NMBS=0 is reported.
S. aureus Bacterial stock was prepared as shown below and the antibacterial efficacy of the active was carried out as explained earlier for E. Coli.

Structures are written as SMILES. Where only a bound is given, the exact number is not on record here.

Turning to `CCCc1ccccc1O` [2-n-propylphenol], in assay [1], the MBC was 1750 µg/mL. Besides, the “No. of replicates showing growth (out of 4)” value is given as 4 out of 4 in assay [1] (component alone at 0.125% w/v), 0 out of 4 in assay [1] (component alone at 0.175% w/v) and 4 out of 4 in assay [1] (component alone at […] w/v). In addition, the “Δ OD 450 nm = OD450 (time = 16 hours) - OD450 (time zero), Mean” value is −1.34 in assay [1] (component alone at 0.125% w/v), −0.10 in assay [1] (component alone at 0.175% w/v) and −1.43 in assay [1] (component alone at […] w/v). Besides, the “Δ OD 590 nm OD590 (time = 16 hours) - OD590 (time zero), Mean” value in assay [1] (component alone at 0.125% w/v) worked out at 0.54; in assay [1] (component alone at 0.175% w/v), 0.09; in assay [1] (component alone at […] w/v), 0.44. The NMBS in assay [2] (0.05% w/v) came out at 7.40 log CFU/ml; in assay [2] (0.125% w/v), 7.06 log CFU/ml; in assay [2] (0.5% w/v) it was 0 log CFU/ml; in assay [2] ([…] w/v) it was 4.12 log CFU/ml. Moreover, the “MBC (minimum biocidal concentration)” value in assay [2] is 0.5 % w/v.

For the compound `CC(C)=CCC/C(C)=C/CO` [(E)-3,7-dimethylocta-2,6-dien-1-ol], in assay [1], the MBC was more than 5000 µg/mL. For the same compound, the “No. of replicates showing growth (out of 4)” value in assay [1] (component alone at 0.2% w/v), in assay [1] (component alone at 0.3% w/v), in assay [1] (component alone at 0.4% w/v), in assay [1] (component alone at 0.5% w/v) and in assay [1] (component alone at […] w/v) was 4 out of 4 in each case. Moreover, the “Δ OD 450 nm = OD450 (time = 16 hours) - OD450 (time zero), Mean” value is recorded as −0.54 in assay [1] (component alone at 0.2% w/v); −0.51 in assay [1] (component alone at 0.3% w/v); −0.49 in assay [1] (component alone at 0.4% w/v); −0.45 in assay [1] (component alone at 0.5% w/v); −0.53 in assay [1] (component alone at […] w/v). Besides, the “Δ OD 590 nm OD590 (time = 16 hours) - OD590 (time zero), Mean” value in assay [1] (component alone at 0.2% w/v) stood at 0.60; in assay [1] (component alone at 0.3% w/v) it was 0.59; in assay [1] (component alone at 0.4% w/v) it was 0.60; in assay [1] (component alone at 0.5% w/v), 0.62; in assay [1] (component alone at […] w/v) it was 0.58. Moreover, the “Terpene alcohol MBC %(w/v)” value in assay [1] (terpene alcohol alone, model surfactant, E. Coli) is 0.5 %(w/v). The NMBS is 7.43 log CFU/ml in assay [2] (0.5% w/v) and 7.18 log CFU/ml in assay [2] (1.0% w/v). In assay [2], the “MBC (minimum biocidal concentration)” value was more than 1.5 % w/v.
